Measured values as given in a melting point compilation (Tetko et al.; mined from patent text by program, amines drawn as free bases though some values may be those of a salt).

Compound	melting point
CCOC(=O)c1ccc(-c2ncc(-c3ccc(Cl)cc3)o2)cc1	195 to 197 °C
COc1ccccc1I	44.5 to 46.5 °C
COc1ccc(C2Sc3ccccc3N(CCN(C)C)C(=O)C2OC(C)=O)cc1 (configuration not stated)	134 to 135 °C
CNC[C@@H](O)c1cc2ccccc2o1	88 to 90 °C
Cc1cc(CSCCNC(=C[N+](=O)[O-])NCC(O)c2cccc(Br)c2)sc1CN(C)C (configuration not stated)	104 to 106 °C
O=C1c2c(n3c4c(cccc24)OCC3c2ccccc2)CCC1(Cl)Cl (configuration not stated)	104 °C
COC(=O)C#CC(=O)c1cccc(OC)c1	32 to 34 °C
Cc1nn(-c2ccc(F)cc2)cc1C(=O)N(CCCC(=O)O)c1ccc(OCC(C)(C)C)c(C#N)c1	178 to 180 °C
CC(C)(COC(=O)CCC(=O)O)Oc1ccc2c(c1)CCc1c-2ccc2c1CCC2(C)C	118 to 120 °C
O=C(O)C(O)Cc1ccc(OCCN2CCSc3ccccc32)cc1 (configuration not stated)	74 to 76 °C
O=C(NNC(=O)C(F)(F)F)C(F)(F)F	173 to 175 °C
Nn1cnn(C2CCc3ccccc3C2)c1=S (configuration not stated)	147 to 150 °C
COc1cc(Cc2cnc(N)nc2N)cc(C#Cc2ccc3ccccc3c2)c1OC	152 to 155 °C
CCOC(=O)c1ccccc1CN1C(=O)C(CCOc2ccc(CCNC(=O)OC(C)(C)C)cc2)Oc2ccccc21 (configuration not stated)	103 to 105 °C
CCOC(=O)c1ccc2c(c1)ncn2-c1cc(Cl)ccc1O	> 360 °C
COc1c(C)c(N2CCN(c3ccc(C)cc3)CC2)c(C)c2c1OC(C)(C)C2	150 to 152 °C
CCOC(=O)N1CCC(Nc2nc3cncnc3n2Cc2ccco2)CC1	172 °C
CCCCCCCCCCCCCCCCCC(=O)C(=O)OCC	43 to 44 °C
CCOC(=O)c1c(N)c2cccnc2n(CC(C)C)c1=O	157 to 159 °C
COc1ccc(C2=NN(c3ccccc3C)C(=O)[C@H]3CC=CC[C@@H]23)cc1OC (relative stereo)	144 to 145 °C
CC(=O)N1CCc2ccc(Cl)cc2C(c2ccc([N+](=O)[O-])cc2)=N1	227 to 229 °C

Compound	melting point
CC(CCC=CC(=O)O)C1CCC2C3CCC4CC(O)CCC4(C)C3CC(O)C12C (configuration not stated)	204 to 208 °C
CCc1nsc(C(=O)NC(C)C)c1C(=O)OC	55 to 56 °C
NC(=O)C1(CCCNC2CC2)c2ccccc2-c2ccccc21	163 to 165 °C
CN1c2ccccc2C(C)(C)C1CC#N (configuration not stated)	74 to 76 °C
COC(=O)c1ccc(Br)c(O)c1	130 to 132 °C
COC(=O)COc1ccc(C=O)cc1OC	91 to 93 °C
CCOC(=O)c1c[nH]c2c(F)c(C(C)=O)c(F)cc2c1=O	267 to 270 °C
CN(c1ccc(Br)cc1)c1nc(=O)c2cccnc2s1	221 to 222 °C
NC(=O)Cc1ccc2[nH]cc(CCN3C(=O)c4ccccc4C3=O)c2c1	191 to 193 °C
Cc1[nH]c(=O)ccc1C(=O)c1ccccc1	185 to 187 °C
COc1cccc(OCc2ccc(C(=O)N(C)C3CCCCC3)cc2)c1	90.4 °C
COc1ccc(CNc2ncc(Cl)cc2C(=O)O)cc1	204 to 206 °C
CN(Cc1ccc(S(C)(=O)=O)c(S(N)(=O)=O)c1)S(C)(=O)=O	165 to 169 °C
Cc1c(C)c2c(c(C)c1OCc1ccccc1)CC[C@@](C)(CO)O2	66 to 69.5 °C
O=C1c2cc(O)ccc2CN1c1ccc2sccc2c1	226 to 228 °C
Cn1cc(-c2cc3cccnc3[nH]2)c2cc(OCC(=O)O)ccc21	> 300 °C
CC(=O)OC1CCC(n2cnc3cc(Cl)c(Cl)cc32)C1OC(C)=O (configuration not stated)	95 to 97 °C
CN1CCC(c2c[nH]c3ccc(NC(=O)c4sccc4Br)nc23)CC1	245 to 247 °C
O=C(O)c1ccc(C(=O)NOCC2CCc3ccccc3C2)cc1 (configuration not stated)	203 to 206 °C
CC(C)(C)Oc1ccc2c(c1)Oc1ccccc1S2(=O)=O	108 to 110 °C
CN1CCc2c(Cl)ccc3c4c(n(c23)CC1)CCCC4	128 to 130 °C
